Key:
[1] = system: antiserum raised to immunogen A (hapten A-BSA); assay: Competitive ELISA microtiter plate assay for 2-oxo-3-hydroxy-LSD, cross-reactivity with LSD and its metabolites; assay type: binding, sheep; conditions: for % CR, percentage cross-reactivity based on specificity to 2-oxo-3-hydroxy LSD: % CR = IC50 2-oxo / IC50 LSD x 100; for % B/B0: B0 = absorbance at 0 ng/ml; for A450: absorbance at 450 nm, conjugate A (hapten A-HRP)
Method: An aqueous solution of the immunogen prepared in Example 5 was formulated with Freund's Complete Adjuvant (FCA) to form an emulsion consisting of 4 mg/ml inmmunogen in 50% (v/v) FCA. Three sheep were immunized with this emulsion (1° immunisation), 0.25 ml being subcutaneously -injected at each of four sites in the flank of each animal. The next immunisation (Boost 1) contained 2 mg/ml immunogen and subsequent immunizations (boosts 2 to 25) contained 1 mg/ml. All boosts were emulsified in 50% (v/v) Freund's Incomplete Adjuvant (FIA) and administered in the same manner as the 1° immunisation at monthly intervals for 1 year. Blood sampling took place 7 to 14 days after each boost. Each sample was processed to produce antiserum, which was further purified by caprylic acid and ammonium sulfate precipitation to yield an immunoglobulin G (IgG) fraction. The IgG fraction was evaluated by competitive ELISA microtitre plate assay, as described in Example 14 below.
The wells of an enhanced binding 96 well polystyrene ricrotiter plate were coated with the IgG fraction of the antiserum raised to immunogen A (Example 5) of the present invention, diluted in 10 mM Tris, pH8.5 (125 μl/well). The appropriate antibody coating dilution was determined using standard ELISA chequerboard techniques. The plate was incubated for 2 hours at 37° C., washed 4 times with Tris buffered saline containing Tween 20 (TBST) and tapped dry. Standard solutions of 2-oxo-3-hydroxy-LSD were prepared in TBST at 0, 10, 50, 100, 250, 500, 1000 and 2000 ng/ml and 50 μl of each was added to the appropriate wells (FIG. 4). The conjugate (detection reagent) of the present invention was diluted in Tris buffer (pH7.2) containing EDTA, D-mannitol, sucrose, thimerosal and BSA, the appropriate dilution being determined by standard ELISA chequerboard techniques, and 75 μl was added to the appropriate wells (FIG. 4). The plate was incubated at 37° C. for 2 hours. Excess unbound conjugate was removed by washing 6 times over a 10 minute period with TBST.
125 μl of tetramethylbenzidine (TMB) substrate solution was added to each well of the plate, which was then incubated for 15 to 20 minutes in the dark at room temperature. The reaction was terminated by addition of 125 μl 0.2M H2SO4 to each well. The absorbance was then measured at 450 nm using a microtiter plate reader.
Standard solutions of LSD and its metabolites were prepared in TBST at 0, 10.0, 50.0, 100.0, 250.0, 500.0, 1000 and 2000 ng/ml. Employing each series of standards in the present competitive ELISA, calibration curves were generated and these were used to determine the cross-reactivity of the immunoassays with LSD and its metabolites, cross-reactivity being calculated according to the following formula: % CR=IC502-oxo/IC50LSD×100 where % CR is the percentage cross-reactivity, IC502-oxo is the concentration of 2-oxo-3-hydroxy-LSD that causes 50% displacement of signal and IC50LSD is the concentration of LSD or LSD metabolite that causes 50% displacement of signal.

[2] = system: antibodies obtained in EP 1 148 339 A2; conditions: when compared to 2-oxo-3-hydroxy-LSD; cited from earlier work
[3] = system: antibodies generated to immunogen 4; conditions: cited from earlier work
[4] = system: antibodies generated to immunogen 8; conditions: cited from earlier work
[5] = in vivo; cited from earlier work
[6] = in vivo; cited from earlier work; remark: listed apart in the source
[7] = system: antibodies of U.S. Pat. No. 6,207,396 B1; conditions: antibodies specific to d-LSD; cited from earlier work
[8] = human urine; cited from earlier work

| Structure (SMILES) | specificity / cross-reactivity of the assay, in words [1] | % CR, percentage cross-reactivity based on specificity to 2-oxo-3-hydroxy LSD [1] [%] | % B/B0 ([1]; standard 10 ng/ml) [%] | A450 ([1]; standard 10 ng/ml) | % B/B0 ([1]; standard 50 ng/ml) [%] | A450 ([1]; standard 50 ng/ml) | % B/B0 ([1]; standard 100 ng/ml) [%] | A450 ([1]; standard 100 ng/ml) | % B/B0 ([1]; standard 250 ng/ml) [%] | A450 ([1]; standard 250 ng/ml) | % B/B0 ([1]; standard 500 ng/ml) [%] | A450 ([1]; standard 500 ng/ml) | % B/B0 ([1]; standard 1000 ng/ml) [%] | A450 ([1]; standard 1000 ng/ml) | % B/B0 ([1]; standard 2000 ng/ml) [%] | A450 ([1]; standard 2000 ng/ml) | cross-reactivity [2] | cross-reactivity [3] [%] | cross-reactivity [4] [%] | cross-reactivity [7] [%] | further results |
| --- | --- | --- | --- | --- | --- | --- | --- | --- | --- | --- | --- | --- | --- | --- | --- | --- | --- | --- | --- | --- | --- |
| CCN(CC)C(=O)[C@@H]1C=C2c3cccc4[nH]cc(c34)C[C@H]2N(C)C1 [LSD, Lysergic acid diethylamide] | very low levels of cross-reactivity | <5 | 99.28 | 1.792 | 98.45 | 1.777 | 98.34 | 1.775 | 96.40 | 1.740 | 91.58 | 1.653 | 87.09 | 1.572 | 80.50 | 1.453 | 74.9–84.4% | 100 | 100 | – | potency as hallucinogen relative to mescaline [5]: 4500–9275 times; potency as hallucinogen relative to psilocybin [5]: 10–150 times; excreted unchanged in urine [6]: less than 1% |
| CCN(CC)C(=O)[C@@H]1C=C2c3cccc4c3C(O)(C[C@H]2N(C)C1)C(=O)N4 (stereo partly drawn) [2-Oxo-3-Hydroxy-LSD, 2-oxo-3-hydroxy-LSD] | highly specific | 100 | 78.47 | 1.396 | 59.36 | 1.056 | 50.08 | 0.891 | 37.10 | 0.660 | 28.89 | 0.514 | 21.98 | 0.391 | 17.88 | 0.318 | – | 50 | < 20 | 1.82 | average concentration relative to that of LSD [8]: 20 times |
| CCN(CC)C(=O)[C@@H]1C=C2c3cccc4[nH]cc(c34)C[C@H]2NC1 [Nor LSD, nor-LSD] | very low levels of cross-reactivity | <5 | 99.0 | 1.772 | 98.7 | 1.767 | 98.5 | 1.763 | 97.1 | 1.738 | 94.2 | 1.686 | 91.5 | 1.638 | 86.7 | 1.552 | 1.8–4.6% | 20 | 40 | – | – |
| CCN(CC)C(=O)[C@H]1C=C2c3cccc4[nH]cc(c34)C[C@H]2N(C)C1 [d-iso-LSD] | – | – | – | – | – | – | – | – | – | – | – | – | – | – | – | – | – | – | – | 0.04 | hallucinogenic activity, in words [5]: inactive |

Reference: US7115718B2, “Haptens, immunogens, antibodies and conjugates to 2-oxo-3-hydroxy-LSD” (Randox :abpratproes :o, oted, priority 2001, dated 2006)
